Here are results for 80 compounds from the Kinase Knowledgebase extract (Sharma et al. 2016).

The structures appear in SMILES notation.

Sequence of PIK3CD (Human) (O00329 whole entry, looked up): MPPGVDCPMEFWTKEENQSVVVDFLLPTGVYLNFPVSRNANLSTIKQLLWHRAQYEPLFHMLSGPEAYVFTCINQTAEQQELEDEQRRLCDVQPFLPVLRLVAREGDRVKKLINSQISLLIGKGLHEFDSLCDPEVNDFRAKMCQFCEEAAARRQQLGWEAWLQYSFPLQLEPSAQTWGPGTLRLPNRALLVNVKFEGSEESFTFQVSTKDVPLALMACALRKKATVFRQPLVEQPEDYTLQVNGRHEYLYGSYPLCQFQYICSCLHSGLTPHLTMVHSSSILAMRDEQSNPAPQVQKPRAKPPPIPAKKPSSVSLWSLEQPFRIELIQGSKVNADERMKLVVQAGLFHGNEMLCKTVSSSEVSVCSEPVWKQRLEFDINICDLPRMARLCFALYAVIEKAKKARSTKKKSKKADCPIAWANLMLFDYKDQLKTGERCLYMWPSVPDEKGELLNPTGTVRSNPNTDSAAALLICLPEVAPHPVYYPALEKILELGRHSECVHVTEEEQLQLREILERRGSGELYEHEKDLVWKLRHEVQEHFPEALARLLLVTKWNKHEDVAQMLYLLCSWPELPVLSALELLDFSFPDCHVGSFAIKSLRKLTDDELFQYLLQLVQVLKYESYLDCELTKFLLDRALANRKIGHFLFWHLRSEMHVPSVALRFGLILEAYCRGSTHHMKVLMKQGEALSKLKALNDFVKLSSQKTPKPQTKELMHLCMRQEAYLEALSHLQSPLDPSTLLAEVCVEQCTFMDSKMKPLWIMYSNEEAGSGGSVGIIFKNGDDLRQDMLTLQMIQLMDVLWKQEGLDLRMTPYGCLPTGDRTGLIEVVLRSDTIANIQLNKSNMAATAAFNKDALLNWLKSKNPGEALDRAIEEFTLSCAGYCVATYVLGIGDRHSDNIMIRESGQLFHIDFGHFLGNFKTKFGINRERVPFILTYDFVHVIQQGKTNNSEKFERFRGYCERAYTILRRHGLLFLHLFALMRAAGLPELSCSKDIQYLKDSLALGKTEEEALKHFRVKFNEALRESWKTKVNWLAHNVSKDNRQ

The assay has as its target PIK3CD (Human) (UniProt O00329). The assay is described as follows: Assessment of PI3KCD Kinase Activity.
Broadly, the IC50 is the point on the concentration scale where inhibition reaches its midpoint. The low end stands for higher potency, the high end for lower potency. Regarding `Cc1ccccc1-n1c(Cn2nc(C#C[C@@H](C)O)c3c(N)ncnc32)nc2scc(C)c2c1=O`, the IC50 is below 100 nM. `Cc1cccc2cc(Cn3nc(I)c4c(N)ncnc43)n(-c3ccccc3Cl)c(=O)c12` displayed an IC50 below 100 nM. Next, `Cc1cccc2cc(Cn3nc(-c4cc(O)cc(F)c4)c4c(N)ncnc43)n(C(C)C)c(=O)c12`: below 100 nM; `COc1ccccc1-n1c(Cn2nc(C#C[C@@H](C)O)c3c(N)ncnc32)cc2cccc(C)c2c1=O`: below 100 nM. On to `CCc1ccccc1-n1c(Cn2nc(C#C[C@@H](C)O)c3c(N)ncnc32)nc2scc(C)c2c1=O`, for which the IC50 was below 100 nM. In turn, `Cc1cccc2cc(Cn3nc(I)c4c(N)ncnc43)n(-c3ccccc3OCCN3CCOCC3)c(=O)c12` showed a half-maximal inhibitory concentration (IC50) below 100 nM. For `Cc1ccccc1-n1c(Cn2nc(I)c3c(N)nccc32)cc2cccc(C)c2c1=O`, the IC50 is below 100 nM. As for `Cc1cccc2cc(Cn3nc(C#C[C@@H](C)O)c4c(N)ncnc43)n(C3CCCC3)c(=O)c12`, the figure is below 100 nM; as for `CC(C)n1c(Cn2nc(-c3cccc(O)c3)c3c(N)ncnc32)cc2ccccc2c1=O`, below 100 nM.

Compound `CC(C)n1c(Cn2nc(-c3cccc(O)c3)c3c(N)ncnc32)cc2cccc(Cl)c2c1=O` registered an IC50 below 100 nM. `CCc1ccccc1-n1c(Cn2nc(C#C[C@@H](C)O)c3c(N)ncnc32)cc2cccc(C)c2c1=O`: the IC50 was below 100 nM. The compound `COc1ccccc1-n1c(Cn2nc(Br)c3c(N)ncnc32)nc2scc(C)c2c1=O` showed a 50% inhibitory concentration (IC50) below 100 nM. `Cc1cccc2cc(Cn3nc(-c4cc(O)cc(F)c4)c4c(N)ncnc43)n(C3CCCCC3)c(=O)c12` displayed an IC50 below 100 nM.

With `Cc1cccc2cc(Cn3nc(-c4cc(O)cc(F)c4)c4c(N)ncnc43)n(C3CCOCC3)c(=O)c12`, the IC50 was below 100 nM. With `Cc1csc2nc(Cn3nc(Br)c4c(N)ncnc43)n(-c3ccccc3C(F)(F)F)c(=O)c12`, the IC50 was below 100 nM. With `Cc1cccc2cc(Cn3nc(-c4cccc(O)c4)c4c(N)ncnc43)n(C3CCCC3)c(=O)c12`, the IC50 is below 100 nM. `Cc1ccccc1-n1c(Cn2nc(C#C[C@@H](C)O)c3c(N)ncnc32)cc2cccc(C)c2c1=O`: the IC50 was below 100 nM.

In the case of `Cc1cccc2cc(Cn3nc(I)c4c(N)ncnc43)n(C(C)C)c(=O)c12`, the IC50 is below 100 nM.

`Cc1csc2nc(Cn3nc(-c4cccc(O)c4)c4c(N)ncnc43)n(-c3ccccc3F)c(=O)c12` displayed an IC50 below 100 nM. Regarding `Cc1cccc2cc(Cn3nc(C#C[C@@H](C)O)c4c(N)ncnc43)n(-c3ccccc3Cl)c(=O)c12`, the IC50 is below 100 nM.

In turn, `Cc1cccc2cc(Cn3nc(-c4cc(O)cc(F)c4)c4c(N)ncnc43)n(C3CCC3)c(=O)c12` showed a half-inhibitory concentration (IC50) below 100 nM. For the compound `Cc1cccc2cc(Cn3nc(-c4cn[nH]c4)c4c(N)ncnc43)n(-c3ccccc3Cl)c(=O)c12`, the IC50 was below 100 nM. `Cc1ccccc1-n1c(Cn2nc(-c3cc(O)cc(F)c3)c3c(N)ncnc32)nc2scc(C(F)(F)F)c2c1=O` showed a 50% inhibitory concentration (IC50) below 100 nM. `Cc1ccnc2nc(Cn3nc(I)c4c(N)ncnc43)n(-c3ccccc3F)c(=O)c12` displayed an IC50 below 100 nM. Compound `Cc1csc2nc(Cn3nc(I)c4c(N)ncnc43)n(-c3ccccc3Cl)c(=O)c12` yielded an IC50 below 100 nM.

In turn, `Cc1ccnc2cc(Cn3nc(-c4cc(O)cc(F)c4)c4c(N)ncnc43)n(-c3ccccc3F)c(=O)c12` showed an IC50 below 100 nM. As for `Cc1cccc2cc(Cn3nc(I)c4c(N)ncnc43)n(C3CCC3)c(=O)c12`, the figure is below 100 nM; as for `Cc1ccccc1-n1c(Cn2nc(-c3cccc(O)c3)c3c(N)nccc32)cc2cccc(C)c2c1=O`, below 100 nM; as for `Nc1ncnc2c1c(I)nn2Cc1cc2cccc(Cl)c2c(=O)n1C1CC1`, below 100 nM. `Cc1csc2nc(Cn3nc(Br)c4c(N)ncnc43)n(-c3ccccc3F)c(=O)c12`: the IC50 is below 100 nM. Compound `Cc1ccccc1-n1c(Cn2nc(-c3cc(O)cc(F)c3)c3c(N)ncnc32)nc2snc(C)c2c1=O` returned an IC50 below 100 nM. As for `Cc1ccccc1-n1c(Cn2nc(-c3cccc(O)c3)c3c(N)ncnc32)nc2scc(C(F)(F)F)c2c1=O`, the figure is below 100 nM; as for `Cc1cccc2cc(Cn3nc(-c4ccc(Cl)c(O)c4)c4c(N)ncnc43)n(C(C)C)c(=O)c12`, below 100 nM; as for `Cc1ccccc1-n1c(Cn2nc(-c3cc(O)cc(F)c3)c3c(N)ncnc32)cc2ncccc2c1=O`, below 100 nM. The compound `Cc1cccc2cc(Cn3nc(-c4cc(O)cc(F)c4)c4c(N)ncnc43)n(-c3ccccc3OCCN3CCOCC3)c(=O)c12` registered an IC50 below 100 nM.

Compound `Cc1cccc2cc(Cn3nc(C#C[C@@H](C)O)c4c(N)ncnc43)n(C(C)C)c(=O)c12` yielded an IC50 below 100 nM. The compound `Cc1ccccc1-n1c(Cn2nc(C#C[C@H](C)O)c3c(N)ncnc32)nc2scc(C)c2c1=O` showed an IC50 below 100 nM. Next, `Cc1ccccc1-n1c(Cn2nc(I)c3c(N)ncnc32)nc2scc(C)c2c1=O`: below 100 nM; `Cc1cccc2cc(Cn3nc(C#C[C@@H](C)O)c4c(N)ncnc43)n(-c3ccccc3O)c(=O)c12`: below 100 nM. `Cc1cccnc1-n1c(Cn2nc(-c3cccc(O)c3)c3c(N)ncnc32)cc2cccc(C)c2c1=O` registered an IC50 below 100 nM.

In the case of `Cc1csc2nc(Cn3nc(I)c4c(N)ncnc43)n(-c3ccccc3F)c(=O)c12`, the half-maximal inhibitory concentration (IC50) is below 100 nM.

`Cc1ccncc1-n1c(Cn2nc(I)c3c(N)ncnc32)cc2cccc(C)c2c1=O` displayed an IC50 below 100 nM. `CC(C)n1c(Cn2nc(-c3cc(O)cc(F)c3)c3c(N)ncnc32)cc2ccccc2c1=O` came in with an IC50 below 100 nM. On to `Nc1ncnc2c1c(-c1cccc(O)c1)nn2Cc1cc2cccc(Cl)c2c(=O)n1C1CC1`, for which the IC50 is below 100 nM.

Compound `Cc1cccnc1-n1c(Cn2nc(-c3cc(O)cc(F)c3)c3c(N)ncnc32)cc2ccccc2c1=O` came in with a half-maximal inhibitory concentration (IC50) below 100 nM.

`Cc1cccc2cc(Cn3nc(-c4cccc(O)c4)c4c(N)ncnc43)n(-c3ccccc3F)c(=O)c12` had an IC50 below 100 nM. In the case of `Cc1ccccc1-n1c(Cn2nc(-c3cccc(O)c3)c3c(N)ncnc32)cc2ccccc2c1=O`, the IC50 is below 100 nM.

Regarding `Cc1cccc2cc(Cn3nc(-c4ccc(F)c(O)c4)c4c(N)ncnc43)n(-c3ccccc3F)c(=O)c12`, the IC50 was below 100 nM. As for `Cc1cccc2cc(Cn3nc(-c4cn[nH]c4)c4c(N)ncnc43)n(-c3ccccc3F)c(=O)c12`, the figure is below 100 nM; as for `Cc1cccc2cc(Cn3nc(C#C[C@@H](C)O)c4c(N)ncnc43)n(C3CCCCC3)c(=O)c12`, below 100 nM. As to `Cc1csc2nc(Cn3nc(C#CCO)c4c(N)ncnc43)n(-c3ccccc3F)c(=O)c12`, the IC50 is below 100 nM. On to `Cc1ccccc1-n1c(Cn2nc(C#CCO)c3c(N)ncnc32)nc2scc(C)c2c1=O`, for which the IC50 was below 100 nM. `Cc1ccccc1-n1c(Cn2nc(-c3ccc(O)c(F)c3)c3c(N)ncnc32)cc2nccc(C)c2c1=O` yielded an IC50 below 100 nM. As for `Cc1cccc2cc(Cn3nc(-c4cccc(O)c4)c4c(N)ncnc43)n(-c3ccccc3OCCN3CCOCC3)c(=O)c12`, the figure is below 100 nM; as for `COc1ccccc1-n1c(Cn2nc(I)c3c(N)ncnc32)cc2cccc(C)c2c1=O`, below 100 nM. `Cc1csc2nc(Cn3nc(C#C[C@@H](C)O)c4c(N)ncnc43)n(-c3ccccc3C(F)(F)F)c(=O)c12` gave an IC50 below 100 nM. `Cc1cccc2cc(Cn3nc(-c4cccc(O)c4)c4c(N)ncnc43)n(C3CCC3)c(=O)c12` displayed an IC50 below 100 nM. As for `Nc1ncnc2c1c(-c1cc(O)cc(F)c1)nn2Cc1cc2cccc(F)c2c(=O)n1-c1ccccc1F`, the figure is below 100 nM.

`Cc1cccc2cc(Cn3nc(C#N)c4c(N)ncnc43)n(-c3ccccc3F)c(=O)c12`: the IC50 is below 100 nM. As to `Cc1ccccc1-n1c(Cn2nc(C#CCO)c3c(N)ncnc32)cc2cccc(C)c2c1=O`, the 50% inhibitory concentration (IC50) is below 100 nM. The compound `Cc1ccccc1-n1c(Cn2nc(Cl)c3c(N)ncnc32)nc2scc(C)c2c1=O` had an IC50 below 100 nM.

`Cc1csc2nc(Cn3nc(Br)c4c(N)ncnc43)n(-c3ccccc3Cl)c(=O)c12` gave an IC50 below 100 nM. As for `Cc1ccccc1-n1c(Cn2nc(-c3cc(O)cc(F)c3)c3c(N)nccc32)cc2cccc(C)c2c1=O`, the figure is below 100 nM. Next, `Cc1cccc2cc(Cn3nc(-c4cnn(CCO)c4)c4c(N)ncnc43)n(-c3ccccc3F)c(=O)c12`: below 100 nM. `Cc1cccc2cc(Cn3nc(-c4cccc(O)c4)c4c(N)ncnc43)n(C3CCCCC3)c(=O)c12` displayed an IC50 below 100 nM. In turn, `Cc1csc2nc(Cn3nc(-c4cccc(O)c4)c4c(N)ncnc43)n(-c3ccccc3Cl)c(=O)c12` had an IC50 below 100 nM.

With `Cc1cccc2cc(Cn3nc(C#CCO)c4c(N)ncnc43)n(-c3ccccc3F)c(=O)c12`, the IC50 is below 100 nM. Regarding `Cc1cccc2cc(Cn3nc(-c4cccc(O)c4)c4c(N)ncnc43)n(C)c(=O)c12`, the IC50 is below 100 nM. `COc1ccccc1-n1c(Cn2nc(Cl)c3c(N)ncnc32)nc2scc(C)c2c1=O` returned an IC50 below 100 nM.

The compound `COc1ccccc1-n1c(Cn2nc(C#C[C@@H](C)O)c3c(N)ncnc32)nc2scc(C)c2c1=O` gave an IC50 below 100 nM.

In turn, `Cc1ccccc1-n1c(Cn2nc(-c3cc(O)cc(F)c3)c3c(N)ncnc32)nc2cnn(C)c2c1=O` returned an IC50 below 100 nM. The compound `Cc1ccccc1-n1c(Cn2nc(-c3cc(O)cc(F)c3)c3c(N)ncnc32)cc2cccc(F)c2c1=O` yielded an IC50 below 100 nM.

Compound `Cc1ccccc1-n1c(Cn2nc(Cl)c3c(N)ncnc32)nc2nccc(C)c2c1=O` returned an IC50 below 100 nM.

For `Cc1ccccc1-n1c(Cn2nc(Br)c3c(N)ncnc32)nc2scc(C)c2c1=O`, the half-inhibitory concentration (IC50) was below 100 nM.

`Cc1ccccc1-n1c(Cn2nc(C#C[C@@H](C)O)c3c(N)ncnc32)cc2nccc(C)c2c1=O` gave an IC50 below 100 nM.

`Cc1cccc2cc(Cn3nc(C#C[C@@H](C)O)c4c(N)ncnc43)n(-c3ccccc3F)c(=O)c12` yielded an IC50 below 100 nM. In the case of `Cc1cccc2cc(Cn3nc(C#C[C@@H](C)O)c4c(N)ncnc43)n(C3CC3)c(=O)c12`, the concentration for half-maximal inhibition (IC50) was below 100 nM. `Cc1ccccc1-n1c(Cn2nc(Cl)c3c(N)ncnc32)cc2cccc(C)c2c1=O` had a 50% inhibitory concentration (IC50) below 100 nM. In turn, `Cc1csc2nc(Cn3nc(-c4ccc(F)c(O)c4)c4c(N)ncnc43)n(-c3ccccc3F)c(=O)c12` came in with an IC50 below 100 nM. Turning to `CC(C)n1c(Cn2nc(-c3cc(O)cc(F)c3)c3c(N)ncnc32)cc2cccc(Cl)c2c1=O`, the IC50 was below 100 nM.
